The record followed here is patent US10829538B2, “Identification of immunogenic MHC class II peptides for immune-based therapy” (THE TRUSTEES OF THE UNIVERSITY OF PENNSYLVANIA, priority 2015, dated 2020).

The test system of assay [1] is HER3 ECD-sensitized CD4+ Th1 cells. The assay is described as follows: Sequential screening of HER3 ECD peptide library: HER3 ECD-sensitized CD4+ Th1 restimulated against peptide-pulsed iDCs, IFN-γ ELISA. Conditions: for reactivity of CD4+ T cells across donors (IFN-γ secretion): 5-6 subjects with known anti-HER3 ECD reactivity. The class given is cell-based, human.
A further assay concerns HLA-DR, DP, DQ. The assay is described as follows: MHC class II promiscuity of CD4+ Th1 responses (HLA-DR, DP, DQ typing of donors). Type of assay: cell-based, human. Conditions: DQ subtypes.
The mark [2] stands for this setting: Donor # 15107-26, previously sensitized to HER3 ECD.
The mark [3] stands for this setting: Donor # 15107-31, previously sensitized to HER3 ECD.
Where [4] appears, read: Donor # 15107-38, previously sensitized to HER3 ECD.
Where [5] appears, read: Donor # 26113-03, previously sensitized to HER3 ECD.
The mark [6] stands for this setting: Donor # 15107-24, previously sensitized to HER3 ECD.

For “AGRIYISANRQLCYH [HER3451-465, HER3 ECD MHC class II immunogenic peptide, positions 451-465]”, the “reactivity of CD4+ T cells across donors (IFN-γ secretion)” value (“reactivity of CD4+ T cells across donors” below) was “react across most donors” in assay [1] and “reproducibly identified” in assay [1] (listed as HER3(451-465)). The “immunogenic CD4+ HER3 ECD peptide identified” value in assay [1] (setting [2]), in assay [1] (setting [3]), in assay [1] (setting [4]) and in assay [1] (setting [5]) was “✓” throughout. Also, the “MHC class II promiscuity” value with HLA-DR, DP, DQ is “promiscuous across HLA-DR, DP, and DQ subtypes”.

Consider “CEVVMGNLEIVLTGH [HER356-70, HER3 ECD MHC class II immunogenic peptide, positions 56-70]”, for which the results for the “reactivity of CD4+ T cells across donors” value in assay [1] and in assay [1] (listed as HER3(56-70)) were “react across most donors” and “reproducibly identified”, respectively. In addition, the “immunogenic CD4+ HER3 ECD peptide identified” value in assay [1] (setting [6]), in assay [1] (setting [2]), in assay [1] (setting [4]) and in assay [1] (setting [5]) was “✓” each time. Also, in the assay with HLA-DR, DP, DQ, the “MHC class II promiscuity” value was “promiscuous across HLA-DR, DP, and DQ subtypes”.

Consider “SWPPHMHNFSVFSNL [HER3401-415, HER3 ECD MHC class II immunogenic peptide, positions 401-415]”, for which the entries for the “reactivity of CD4+ T cells across donors” value in assay [1] and in assay [1] (listed as HER3(401-415)) were “react across most donors” and “reproducibly identified”, respectively. The “immunogenic CD4+ HER3 ECD peptide identified” value in assay [1] (setting [6]), in assay [1] (setting [2]) and in assay [1] (setting [5]) was “✓” each time. Besides, the “MHC class II promiscuity” value in the assay on HLA-DR, DP, DQ is “promiscuous across HLA-DR, DP, and DQ subtypes”.

For “TTIGGRSLYNRGFSL [HER3416-430, HER3 ECD MHC class II immunogenic peptide, positions 416-430]”, the “reactivity of CD4+ T cells across donors” value was “react across most donors” in assay [1] and “reproducibly identified” in assay [1] (listed as HER3(416-430)). The “immunogenic CD4+ HER3 ECD peptide identified” value in assay [1] (setting [6]), in assay [1] (setting [2]), in assay [1] (setting [3]) and in assay [1] (setting [5]) was “✓” each time. In addition, the “MHC class II promiscuity” value with HLA-DR, DP, DQ was “promiscuous across HLA-DR, DP, and DQ subtypes”.
